This is an account of results in patent US8581605B2 (priority 2006, dated 2013).

The assay is classed as biochemical. The conditions noted are these: pH 7.4.

With α-hemolysin [αHL], the “single-channel conductance of the αHL channel” value is about 900 pS.
